From PMC10247784, “Physiological activation of human and mouse bitter taste receptors by bile acids” (Communications Biology, 2023)

Molecular target: T1, human TAS2R14 (Homo sapiens, UniProt Q9NYV8)
T1 construct: expressed in transfected cells; host or cells: HEK293T-Gα16gust44
T1 sequence (Q9NYV8 1-317): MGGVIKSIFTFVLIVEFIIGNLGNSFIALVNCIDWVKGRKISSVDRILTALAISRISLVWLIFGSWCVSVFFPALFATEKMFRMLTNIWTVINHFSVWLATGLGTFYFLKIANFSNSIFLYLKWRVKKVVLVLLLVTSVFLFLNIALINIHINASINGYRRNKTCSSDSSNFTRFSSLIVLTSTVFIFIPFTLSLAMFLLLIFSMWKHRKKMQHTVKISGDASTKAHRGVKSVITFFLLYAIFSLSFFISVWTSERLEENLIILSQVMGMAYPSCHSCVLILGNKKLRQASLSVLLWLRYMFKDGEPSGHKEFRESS
Assay: Calcium imaging assay (FLIPR), HEK293T-Gα16gust44 cells transfected with human TAS2R14
Format: cell-based
Details: for RLU: TAS2R14 trace
Protocol: This set of bile acids was chosen because of their commercial availability in high purities, their diversity within the class of bile acids and their previous detection and quantitation in human blood. Stock solutions were prepared in DMSO.
As basal growth medium for the HEK293T-Gα16gust44 cell line[17],[59] served Dulbecco’s modified eagle medium (DMEM) (Thermo Fisher Scientific, Darmstadt, Germany) supplemented with 10 % fetal bovine serum (Sigma-Aldrich, Steinheim, Germany), 2 mM L-glutamine (Sigma-Aldrich, Steinheim, Germany), 100 units/ml penicillin (Sigma Aldrich, Steinheim, Germany) and 100 µg/ml streptomycin (Sigma Aldrich, Steinheim, Germany). Growth conditions were 37 °C, 5 % CO2 and saturated air-humidity[60].
HEK293T-Gα16gust44 cells were seeded on poly-D-lysine (10 µg/ml) coated 96-well plates to reach a confluence of 40-60 % the next day. For transient transfection 150 ng of plasmid DNA containing the receptor of interest and 0.3 µl lipofectamine 2000 (Thermo Fisher Scientific, Darmstadt, Germany) per well were used and transfection took place according to the manual of lipofectamine 2000. […] The empty vector DNA (mock) was transfected as negative control[14],[41].
Cells were loaded using the calcium-sensitive fluorescent dye Fluo-4-AM (Abcam, Cambridge, Great Britain) in the presence of 2.5 mM probenecid (Sigma-Aldrich, Steinheim, Germany) the day after transfection[13],[41]. 1 h after loading, cells were washed with C1 buffer using a BioTek Cell Washer, incubated in the dark for half an hour and washed again. For automated agonist application and measurement of fluorescence changes, a FLIPR^TETRA device (Molecular Devices, San José, United States) was used. Viability of cells was tested by application of 100 nM Somatostatin 14 (Bachem, Bubendorf, Switzerland)[42].
Measured data were negative control corrected by subtracting the signal of the mock-transfected cells and exported to Microsoft Excel using the FLIPR software ScreenWorks 4.2. In Microsoft Excel software, standardization of maximum fluorescence intensities to the basal fluorescence and normalization to the buffer-only control was done to calculate the relative fluorescence changes (ΔF/F).
Initial screening experiments performed in duplicate wells were confirmed by at least one replication and representative traces were selected for display. All dose-response relationships were determined by three independent experiments (biological replicates) performed in duplicates (technical replicates). Threshold concentrations, defined as lowest substance concentrations leading to statistically significant elevated fluorescence changes in receptor-transfected cells compared with empty vector-transfected cells, were determined using SigmaPlot with Student’s t-test to evaluate statistical significance (p < 0.01).

RLU (Time (s) 88.797 (Chenodeoxycholic Acid 88.781)): 638.796 RLU
RLU (Time (s) 90.797 (Chenodeoxycholic Acid 90.781)): 637.499 RLU
RLU (Time (s) 92.797 (Chenodeoxycholic Acid 92.781)): 628.913 RLU
RLU (Time (s) 94.797 (Chenodeoxycholic Acid 94.781)): 638.53 RLU
RLU (Time (s) 96.797 (Chenodeoxycholic Acid 96.781)): 632.564 RLU
RLU (Time (s) 98.797 (Chenodeoxycholic Acid 98.781)): 628.21 RLU
RLU (Time (s) 100.797 (Chenodeoxycholic Acid 100.781)): 613.502 RLU
RLU (Time (s) 102.797 (Chenodeoxycholic Acid 102.781)): 604.41 RLU
RLU (Time (s) 104.797 (Chenodeoxycholic Acid 104.781)): 599.892 RLU
RLU (Time (s) 106.797 (Chenodeoxycholic Acid 106.781)): 563.223 RLU
RLU (Time (s) 108.797 (Chenodeoxycholic Acid 108.781)): 594.081 RLU
RLU (Time (s) 110.797 (Chenodeoxycholic Acid 110.781)): 586.278 RLU
RLU (Time (s) 112.797 (Chenodeoxycholic Acid 112.781)): 550.791 RLU
RLU (Time (s) 114.797 (Chenodeoxycholic Acid 114.781)): 544.911 RLU
RLU (Time (s) 116.797 (Chenodeoxycholic Acid 116.781)): 535.277 RLU
RLU (Time (s) 118.797 (Chenodeoxycholic Acid 118.781)): 521.394 RLU
RLU (Time (s) 120.797 (Chenodeoxycholic Acid 120.781)): 516.9 RLU
RLU (Time (s) 122.797 (Chenodeoxycholic Acid 122.781)): 506.351 RLU
RLU (Time (s) 124.797 (Chenodeoxycholic Acid 124.781)): 491.947 RLU
RLU (Time (s) 126.797 (Chenodeoxycholic Acid 126.781)): 464.952 RLU
RLU (Time (s) 128.797 (Chenodeoxycholic Acid 128.781)): 465.396 RLU
RLU (Time (s) 130.797 (Chenodeoxycholic Acid 130.781)): 467.418 RLU
RLU (Time (s) 132.797 (Chenodeoxycholic Acid 132.781)): 469.949 RLU
RLU (Time (s) 134.797 (Chenodeoxycholic Acid 134.781)): 415.628 RLU
RLU (Time (s) 136.797 (Chenodeoxycholic Acid 136.781)): 432.183 RLU
RLU (Time (s) 137.562 (Taurocholic Acid 137.563, Chenodeoxycholic Acid 137.546)): 452.404 RLU
RLU (Time (s) 143.578 (Taurocholic Acid 143.563, Chenodeoxycholic Acid 143.546)): 380.071 RLU
RLU (Time (s) 149.578 (Taurocholic Acid 149.563, Chenodeoxycholic Acid 149.546)): 382.743 RLU
RLU (Time (s) 155.578 (Taurocholic Acid 155.563, Chenodeoxycholic Acid 155.546)): 336.968 RLU
RLU (Time (s) 161.578 (Taurocholic Acid 161.563, Chenodeoxycholic Acid 161.546)): 359.379 RLU
RLU (Time (s) 167.578 (Taurocholic Acid 167.563, Chenodeoxycholic Acid 167.546)): 343.975 RLU
RLU (Time (s) 173.578 (Taurocholic Acid 173.563, Chenodeoxycholic Acid 173.546)): 278.705 RLU
RLU (Time (s) 179.578 (Taurocholic Acid 179.563, Chenodeoxycholic Acid 179.546)): 300.666 RLU
RLU (Time (s) 191.578 (Taurocholic Acid 191.563, Chenodeoxycholic Acid 191.546)): 185.369 RLU
RLU (Time (s) 197.578 (Taurocholic Acid 197.563, Chenodeoxycholic Acid 197.546)): 161.87 RLU
RLU (Time (s) 209.578 (Taurocholic Acid 209.563, Chenodeoxycholic Acid 209.546)): 179.275 RLU
RLU (Time (s) 221.578 (Taurocholic Acid 221.563, Chenodeoxycholic Acid 221.546)): 182.465 RLU
RLU (Time (s) 233.578 (Taurocholic Acid 233.563, Chenodeoxycholic Acid 233.546)): 198.132 RLU
RLU (Time (s) 239.578 (Taurocholic Acid 239.563, Chenodeoxycholic Acid 239.546)): 183.585 RLU
RLU (Time (s) 245.578 (Taurocholic Acid 245.563, Chenodeoxycholic Acid 245.546)): 212.748 RLU
RLU (Time (s) 293.578 (Taurocholic Acid 293.563, Chenodeoxycholic Acid 293.546)): 209.963 RLU
RLU (Time (s) 299.578 (Taurocholic Acid 299.563, Chenodeoxycholic Acid 299.546)): 216.371 RLU
RLU (Time (s) 305.578 (Taurocholic Acid 305.563, Chenodeoxycholic Acid 305.546)): 208.994 RLU
RLU (Time (s) 311.578 (Taurocholic Acid 311.563, Chenodeoxycholic Acid 311.546)): 184.812 RLU
RLU (Time (s) 317.578 (Taurocholic Acid 317.563, Chenodeoxycholic Acid 317.546)): 189.014 RLU
RLU (Time (s) 323.578 (Taurocholic Acid 323.563, Chenodeoxycholic Acid 323.546)): 182.748 RLU
RLU (Time (s) 329.578 (Taurocholic Acid 329.563, Chenodeoxycholic Acid 329.546)): 195.394 RLU
RLU (Time (s) 335.578 (Taurocholic Acid 335.563, Chenodeoxycholic Acid 335.546)): 190.135 RLU
RLU (Time (s) 341.578 (Taurocholic Acid 341.563, Chenodeoxycholic Acid 341.546)): 187.029 RLU
RLU (Time (s) 347.578 (Taurocholic Acid 347.563, Chenodeoxycholic Acid 347.546)): 164.841 RLU
RLU (Time (s) 353.578 (Taurocholic Acid 353.563, Chenodeoxycholic Acid 353.546)): 198.762 RLU
RLU (Time (s) 359.578 (Taurocholic Acid 359.563, Chenodeoxycholic Acid 359.546)): 181.785 RLU
Activation threshold concentration TAS2R14 (lowest concentration with significantly increased fluorescence vs empty vector (p < 0.01)): 30 µM
Receptor response TAS2R14 (screening): activated
Compound: C[C@H](CCC(=O)O)[C@H]1CC[C@H]2[C@@H]3[C@H](O)C[C@@H]4C[C@H](O)CC[C@]4(C)[C@H]3CC[C@]12C [Chenodeoxycholic Acid, chenodeoxycholic acid]
